Earlier results in patent publication US20240090499A1, “PRESERVATIVE COMPOSITIONS” (Dermegen Inc., priority 2022, published 2024).
Like-named read-outs stand apart in the source and are kept apart here.

Test system: fungi (molds)
Conditions: ingredient on its own

Row | Compound | anti-fungal activity as known | anti-fungal activity as known (listed as Polylysine)
1 | CCCCCCCC(=O)OCC(O)CO (stereo not drawn) [glyceryl caprylate] | weak preservatives against molds | –
2 | polylysine | only weakly anti-fungal | weak preservative against fungal microorganisms such as molds
